Two compounds from publication PMC6686156, “Discovery of Sustainable Drugs for Neglected Tropical Diseases: Cashew Nut Shell Liquid (CNSL)‐Based Hybrids Target Mitochondrial Function and ATP Production in Trypanosoma brucei” (Chemmedchem, 2019) can be followed below.

Like-named read-outs stand apart in the source and are kept apart here.

Data set [1] concerns T. b. brucei 427WT bloodstream trypomastigotes. The data set can be described thus: Transmission electron microscopy on T. b. brucei. In kind it is cell-based, Trypanosoma brucei brucei. To be noted: 1×EC50; 4 h exposure. On the procedure:
Transmission electron microscopy assay on T. b. brucei and HFF cells: TEM of bloodstream trypomastigotes (427WT) and of HFF was performed essentially as previously described.52 Briefly, cell cultures were adjusted to 2.5×10^6 cells mL^−1 and incubated in the presence or absence of test compounds at EC50. Cells were fixed overnight at 4 °C in 2.5 % glutaraldehyde and 4 % paraformaldehyde in 0.1 M phosphate buffer (pH 7.4). Samples were washed with 0.1 M phosphate buffer (pH 7.4), post‐fixed in 1 % osmium tetroxide for 1 h on ice, and washed with the phosphate buffer. Cells were next incubated in 0.5 % uranyl acetate solution for 30 min, washed with distilled water and dehydrated in increasing concentrations of acetone (30, 50, 70, 90 and 100 %).

Data set [2] can be described thus: Cytotoxicity assay on human foreskin fibroblast (HFF), resazurin. In kind it is cell-based. The following applies: human foreskin fibroblast (HFF) cells, tested up to 200 μM, read-out: HFF cytotoxic activity (EC50). As for the experimental part:
Cytotoxicity assay on human foreskin fibroblast (HFF): Toxicity of test compounds to mammalian cells was carried out using the resazurin assay previously described31 with slight modifications as follows. HFF cells were grown in a culture medium containing 500 mL of Dulbecco's modified Eagle's medium (DMEM; Sigma), 50 mL newborn calf serum (NBCS; Gibco), 5 mL penicillin/streptomycin (Gibco), and 5 mL of L‐Glutamax ([…], Gibco), at 37 °C and 5 % CO2 in vented flasks and passaged at 80–85 % of confluence. For the cytotoxicity assay, cells were suspended at 3×10^5 cells mL^−1 and 100 μL aliquots were added to each well of a 96‐well plate. The plate was incubated at 37 °C and 5 % CO2 for 24 h to allow cell adhesion. Serial test compounds dilution was performed in a different 96‐well plate and 100 μL of each dilution was transferred to each well containing cells, resulting in exposure of cells to 200–0.2 μM of test compound. Phenylarsine oxide (Sigma–Aldrich) was used as positive control and drug‐free incubation as negative control. The plates were incubated at 37 °C and 5 % CO2 for an additional 30 h, at which point 10 μL of resazurin solution ([…] in PBS) was added, followed by a final incubation for 24 h. The plates were read and the data analyzed as described above for the trypanosome assay.
(In general: Alamar Blue is a resazurin reagent that responds to reducing activity.)

The next data set has as its system T. b. brucei ISMR1. The experiment in a line: In vitro drug susceptibility assay (resazurin), dyskinetoplastic ISMR1 strain. The following applies: isometamidium-resistant line. It is filed as cell-based, Trypanosoma brucei brucei. As for the experimental part:
(§1) Organisms and culture media: Only bloodstream trypomastigotes of T. b. brucei were used throughout this study. […] Parasites were cultured in vented flasks at 37 °C and 5 % CO2 atmosphere and they were passaged every 3 days. Bloodstream forms of T. congolense savannah‐type strain IL3000 were cultured in basal MEM medium, supplemented by 10 % fresh goat serum, 14 μL of β‐mercaptoethanol, 800 μL of 200 mM glutamine solution, and 10 mL of penicillin/streptomycin solution per liter of medium (pH 7.3).48 T. congolense were cultured in six‐well plates at 34 °C and 5 % CO2.
(§2) In brief, the assays were performed in 96‐well plates with 2×10^5 cells per well for T. b. brucei or 5×10^5 cells per well for T. congolense, in their respective culture media. First, 200 μL of test compounds’ solutions (400 μM, in T. brucei or T. congolense medium as appropriate) was added to the first well of each 12‐well row, from which doubling dilutions were conducted over one row per test compound. […] Fluorescence was detected using a FLUOstar Optima (BMG Labtech, Durham, NC, USA) at wavelength of 540 nm (excitation), 590 nm (emission). EC50 values were calculated by nonlinear regression using an equation for a sigmoidal dose–response curve with variable slope using Prism 5.0 (GraphPad Software Inc., San Diego, CA, USA).

In data set [3] the test system is T. b. brucei 427WT trypomastigotes. The experiment in a line: Reactive oxygen species (ROS) assay (DCFH-DH). In kind it is cell-based, Trypanosoma brucei brucei. The following applies: incubation up to 2 h, multiples of EC50. As for the experimental part: Reactive oxygen species (ROS) assay on T. b. brucei: The production of ROS when T. b. brucei 427WT trypomastigotes incubated with different concentration (2.5×EC50; 1.25×EC50; 0.3×EC50) of test compound was assessed using the indicator dye 2,7‐dichlorodihydrofluorescein diacetate (DCFH‐DH; Sigma–Aldrich). This assay was performed in a 96‐well black‐bottomed well plate; 200 μL of each test compound solution, at 5×EC50 in assay buffer pH 7.3, was added to the well in the first column of the plate and doubling dilutions were carried out across the row, after which 3×10^6 cell in 100 μL of assay buffer were added to each well, immediately followed by 2 μL of 1 mM DCFH‐DH, under minimal light conditions. The plates were incubated in a FLUOstar OPTIMA fluorimeter at 37 °C 5 % CO2 and the fluorescence was monitored at 485 nm for the excitation, 520 nm for the emission for 3 h, taking readings of each well every 2 min. Three wells were included in the plate as controls: 1) 3×10^6 cells per well in assay buffer without test compound; 2) 3×10^6 cells per well in assay buffer with 2 μL of 10 mM H2O2; 3) assay buffer without cells and test compound.

Data set [4] relates to T. b. brucei 427WT bloodstream trypomastigotes. The data set can be described thus: microbe, parasite or virus in culture. In kind it is cell-based, Trypanosoma brucei brucei. The following applies: for SI, selectivity index=EC50(HFF)/EC50(T. b. b. WT): HFF versus T. b. b. 427WT; for RF, resistance factor (+ 5 mM glycerol versus control): Table 2; for EC50: Trypanosoma brucei; for fold more active than compound 4: trypanocidal activity relative to parent compound 4. On the procedure: as §1, §2

Another data set deals with T. b. brucei B48. The experiment in a line: microbe, parasite or virus in culture. It is filed as cell-based, Trypanosoma brucei brucei. To be noted: for RF, resistance factor relative to WT (B48): B48 versus 427WT; for EC50: Trypanosoma brucei, read-out: EC50 T. b. b. B48. As for the experimental part:
as §1, §2

Data set [5] relates to T. b. brucei aqp2/aqp3‐KO. The experiment in a line: microbe, parasite or virus in culture. In kind it is cell-based, Trypanosoma brucei brucei. To be noted: for EC50: Trypanosoma brucei, read-out: EC50 T. b. b. aqp2/aq3‐KO; for RF, resistance factor relative to WT (aqp2/aqp3-KO): aqp2/aqp3-KO versus 427WT. On the procedure:
as §1, §2

In the next data set the test system is T. congolense IL3000 WT. The experiment in a line: In vitro drug susceptibility assay (resazurin), T. congolense. In kind it is cell-based. The following applies: Trypanosoma congolense, bloodstream forms, read-out: EC50 T. c. IL3000 WT. As for the experimental part:
as §1, §2

The mark [6] stands for this setting: 72 h, bloodstream trypomastigotes, resazurin, 48 h + 24 h, n=4, read-out: EC50 T. b. b. 427WT.
Where [7] appears, read: Table 2, 5 mM glycerol in medium, average±SEM of three, read-out: EC50 s427WT + 5 mM glycerol.
Setting [8] is: Table 2, no glycerol, average±SEM of three, read-out: EC50 Control s427WT.

Take `O=C1C(Oc2cccc(CCCCCCCCO)c2)=CC(=O)c2c(O)cccc21` [Compound 22, 5‐Hydroxy‐2‐(3‐(8‐hydroxyoctyl)phenoxy)naphthalene‐1,4‐dione]: in data set [1], the “ultrastructure by TEM in trypanosomes” value is “mitochondrial damage but no other ultrastructural changes”. The EC50 at 54 h in data set [2] was over 200 µM. For the same compound, the “EC50 in ISMR1 relative to 427WT tested in parallel” value in the data set with T. b. brucei ISMR1 is given as “did not show a significant increase in the EC50 values”. Moreover, in data set [3], the “ROS production” value is recorded as “dose‐dependently increased”. The “SI, selectivity index=EC50(HFF)/EC50(T. b. b. WT)” value in data set [4] is over 26.3. The “RF, resistance factor (+ 5 mM glycerol versus control)” value in data set [4] is 1.11. Also, the EC50 in data set [4] (setting [6]) came out at 7.6 ± 0.7 µM; in data set [4] (setting [7]), 28.2 ± 0.2 µM; in data set [4] (setting [8]) it was 25.4 ± 1 µM; in the data set with T. b. brucei B48, 6.8 ± 0.1 µM; in data set [5], 7.3 ± 0.5 µM; with T. congolense IL3000 WT, 43.4 ± 0.2 µM. Also, the “fold more active than compound 4” value in data set [4] is recorded as “up to 10 fold”. The “RF, resistance factor relative to WT (B48)” value with T. b. brucei B48 is given as 0.91. In addition, the “RF, resistance factor relative to WT (aqp2/aqp3-KO)” value in data set [5] is listed as 0.96.

Take `COc1cccc2c1C(=O)C=C(Oc1cccc(CCCCCCCCO)c1)C2=O` [Compound 20, 2‐(3‐(8‐Hydroxyoctyl)phenoxy)‐5‐methoxynaphthalene‐1,4‐dione]: the “ultrastructure by TEM in trypanosomes” value in data set [1] is reported as “some mitochondria presented an irregular shape”. In addition, in data set [2], the EC50 at 54 h is over 200 µM. Besides, in the data set with T. b. brucei ISMR1, the “EC50 in ISMR1 relative to 427WT tested in parallel” value is on record as “did not show a significant increase in the EC50 values”. In addition, in data set [3], the “ROS production” value is “dose‐dependently increased”. Moreover, the “SI, selectivity index=EC50(HFF)/EC50(T. b. b. WT)” value in data set [4] was over 40. For the same compound, the “RF, resistance factor (+ 5 mM glycerol versus control)” value in data set [4] is 1.74. The EC50 in data set [4] (setting [6]) turned out to be 5 ± 0.3 µM; in data set [4] (setting [7]), 16 ± 0.2 µM; in data set [4] (setting [8]), 9.2 ± 0.04 µM; in the data set on T. b. brucei B48 it was 5.3 ± 0.8 µM; in data set [5] it was 6.2 ± 0.58 µM; with T. congolense IL3000 WT it was 18.8 ± 0.2 µM. Further, the “fold more active than compound 4” value in data set [4] is listed as “up to 10 fold”. Besides, in the data set on T. b. brucei B48, the “RF, resistance factor relative to WT (B48)” value is given as 1.1. The “RF, resistance factor relative to WT (aqp2/aqp3-KO)” value in data set [5] turned out to be 1.2.
